Values after ≈ are worked out from the molar mass of the structure shown.
Columns and labels:
Format in all cases: cell-based
[1] = system: Staphylococcus aureus FDA 209PJc-1; assay: Antibacterial activity, agar-dilution MIC, organism No. 1; settings: Staphylococcus aureus, FDA209PJC1; Organism No. 1, bouillon-agar; read-out: Minimum Inhibitory Concentration
Summary of the method: (§1)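 Specimen is incorporated into bouillon-agar medium at graded levels and the organisms are tested on these plates. The lowest level preventing growth is taken as the MIC (μg/ml of medium).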

[2] = system: Staphylococcus aureus Terajima; assay: Antibacterial activity, agar-dilution MIC, organism No. 2; settings: Staphylococcus aureus; Organism No. 2, bouillon-agar; read-out: Minimum Inhibitory Concentration
Summary of the method: as §1

[3] = system: Staphylococcus aureus MS 353; assay: Antibacterial activity, agar-dilution MIC, organism No. 3; settings: Staphylococcus aureus, MS353; Organism No. 3, bouillon-agar; read-out: Minimum Inhibitory Concentration
Summary of the method: as §1

[4] = system: Streptococcus pyogenes Cook; assay: Antibacterial activity, agar-dilution MIC, organism No. 4; settings: Streptococcus pyogenes; Organism No. 4, bouillon-agar; read-out: Minimum Inhibitory Concentration
Summary of the method: as §1

[5] = system: Escherichia coli NIHJ-JC-2; assay: Antibacterial activity, agar-dilution MIC, organism No. 5; settings: Escherichia coli, NIHJJC2; Organism No. 5, bouillon-agar; read-out: Minimum Inhibitory Concentration
Summary of the method: as §1

[6] = system: Escherichia coli K12 C600 IAM 1264; assay: Antibacterial activity, agar-dilution MIC, organism No. 6; settings: Escherichia coli, IAM1264; Organism No. 6, bouillon-agar; read-out: Minimum Inhibitory Concentration
Summary of the method: as §1

[7] = system: Klebsiella pneumoniae PCI-602; assay: Antibacterial activity, agar-dilution MIC, organism No. 7; settings: Klebsiella pneumoniae, PCI602; Organism No. 7, bouillon-agar; read-out: Minimum Inhibitory Concentration
Summary of the method: as §1

[8] = system: Salmonella typhimurium IID 971; assay: Antibacterial activity, agar-dilution MIC, organism No. 8; settings: Salmonella enterica; Organism No. 8, bouillon-agar; read-out: Minimum Inhibitory Concentration
Summary of the method: as §1

[9] = system: Salmonella typhi 901; assay: Antibacterial activity, agar-dilution MIC, organism No. 9; settings: Salmonella enterica, TYPHI, read-out: Minimum Inhibitory Concentration
Summary of the method: as §1

[10] = system: Salmonella paratyphi-A 1015; assay: Antibacterial activity, agar-dilution MIC, organism No. 10; settings: Salmonella enterica, PARATYPHI, read-out: Minimum Inhibitory Concentration
Summary of the method: as §1

[11] = system: Salmonella shottmuelleri 8006; assay: Antibacterial activity, agar-dilution MIC, organism No. 11; settings: Salmonella, 8006; Organism No. 11, bouillon-agar; read-out: Minimum Inhibitory Concentration
Summary of the method: as §1

[12] = system: Salmonella enteritidis G 14; assay: Antibacterial activity, agar-dilution MIC, organism No. 12; settings: Salmonella enterica, ENTERITIDIS; Organism No. 12, bouillon-agar; read-out: Minimum Inhibitory Concentration
Summary of the method: as §1

[13] = system: Serratia marcescens IAM 1184; assay: Antibacterial activity, agar-dilution MIC, organism No. 13; settings: Serratia marcescens, IAM1184; Organism No. 13, bouillon-agar; read-out: Minimum Inhibitory Concentration
Summary of the method: as §1

[14] = system: Bacillus subtilis ATCC 6633; assay: Antibacterial activity, agar-dilution MIC, organism No. 14; settings: Bacillus subtilis, ATCC6633; Organism No. 14, bouillon-agar; read-out: Minimum Inhibitory Concentration
Summary of the method: as §1

[15] = system: Pseudomonas aeruginosa IFO 3445; assay: Antibacterial activity, agar-dilution MIC, organism No. 15; settings: Pseudomonas aeruginosa, IFO3445; Organism No. 15, bouillon-agar; read-out: Minimum Inhibitory Concentration
Summary of the method: as §1

[16] = system: Pseudomonas aeruginosa NCTC 10490; assay: Antibacterial activity, agar-dilution MIC, organism No. 16; settings: Pseudomonas aeruginosa, NCTC10490; Organism No. 16, bouillon-agar; read-out: Minimum Inhibitory Concentration
Summary of the method: as §1

[17] = system: Pseudomonas aeruginosa PAO 1; assay: Antibacterial activity, agar-dilution MIC, organism No. 17; settings: Pseudomonas aeruginosa, PAO1; Organism No. 17, bouillon-agar; read-out: Minimum Inhibitory Concentration
Summary of the method: as §1

[18] = system: Proteus morganii IFO 3848; assay: Antibacterial activity, agar-dilution MIC, organism No. 18; settings: Morganella morganii, IFO3848; Organism No. 18, bouillon-agar; read-out: Minimum Inhibitory Concentration
Summary of the method: as §1

[19] = system: Proteus mirabilis IFO 3849; assay: Antibacterial activity, agar-dilution MIC, organism No. 19; settings: Proteus mirabilis, IFO3849; Organism No. 19, bouillon-agar; read-out: Minimum Inhibitory Concentration
Summary of the method: as §1

[20] = system: Proteus vulgaris OX-19; assay: Antibacterial activity, agar-dilution MIC, organism No. 20; settings: Proteus vulgaris, OX19; Organism No. 20, bouillon-agar; read-out: Minimum Inhibitory Concentration
Summary of the method: as §1

[21] = system: Proteus vulgaris HX-19; assay: Antibacterial activity, agar-dilution MIC, organism No. 21; settings: Proteus vulgaris, HX19; Organism No. 21, bouillon-agar; read-out: Minimum Inhibitory Concentration
Summary of the method: as §1

[22] = system: Proteus rettgeri IFO 3850; assay: Antibacterial activity, agar-dilution MIC, organism No. 22; settings: Providencia rettgeri, IFO3850; Organism No. 22, bouillon-agar; read-out: Minimum Inhibitory Concentration
Summary of the method: as §1

[23] = system: Enterobacter aerogenes ATCC 13048; assay: Antibacterial activity, agar-dilution MIC, organism No. 23; settings: Klebsiella aerogenes, ATCC13048; Organism No. 23, bouillon-agar; read-out: Minimum Inhibitory Concentration
Summary of the method: as §1

[24] = system: Enterobacter cloacae 963; assay: Antibacterial activity, agar-dilution MIC, organism No. 24; settings: Enterobacter cloacae, 963; Organism No. 24, bouillon-agar; read-out: Minimum Inhibitory Concentration
Summary of the method: as §1

[25] = system: Micrococcus luteus ATCC 9341; assay: Antibacterial activity, agar-dilution MIC, organism No. 25; settings: Micrococcus luteus, ATCC9341; Organism No. 25, bouillon-agar; read-out: Minimum Inhibitory Concentration
Summary of the method: as §1

[26] = system: Streptococcus pyogenes IFO 3340; assay: Antibacterial activity, agar-dilution MIC, organism No. 26; settings: Streptococcus pyogenes, IFO3340; Organism No. 26, bouillon-agar; read-out: Minimum Inhibitory Concentration
Summary of the method: as §1

[27] = system: Streptococcus faecium IFO 3826; assay: Antibacterial activity, agar-dilution MIC, organism No. 27; settings: Enterococcus faecium, IFO3826; Organism No. 27, bouillon-agar; read-out: Minimum Inhibitory Concentration
Summary of the method: as §1

[28] = system: Mycoplasma pneumoniae IID817; assay: Antimycoplasmal activity, MIC by phenol red colour change, organism No. 28; settings: Mycoplasma, IID817; Organism No. 28, PPLO broth + 1% glucose, 37° C.; read-out: Minimum Inhibitory Concentration (MIC)
Procedure: Mycoplasma pneumoniae IID817 was used as the test microorganism in a culture medium prepared by adding 1% of glucose to "PPLO broth (manufactured by Difco Co.) liquid culture medium" at 37° C. with phenol red as an indicator, thereby culturing the test microorganism.

[29] = system: Candida albicans IAM 4905; assay: Antifungal activity, agar-dilution MIC, organism No. 29; settings: Candida albicans, IAM4905; Organism No. 29, bouillon-agar; read-out: Minimum Inhibitory Concentration
Summary of the method: as §1

[30] = system: Aspergillus niger IFO 6342; assay: Antifungal activity, agar-dilution MIC, organism No. 30; settings: Aspergillus niger, IFO6342; Organism No. 30, bouillon-agar; read-out: Minimum Inhibitory Concentration
Summary of the method: as §1

[C-]#[N+]C12CC3(/C=C/C(=O)Nc4cccc(O)c4)OC3C1O2 (stereo not drawn) [compound 57]
MIC [1]: 1.56 µg/mL (≈ 5.49 µM)
MIC [2]: 6.25 µg/mL (≈ 22 µM)
MIC [3]: 1.56 µg/mL (≈ 5.49 µM)
MIC [4]: 12.5 µg/mL (≈ 44 µM)
MIC [5]: 12.5 µg/mL (≈ 44 µM)
MIC [6]: 12.5 µg/mL (≈ 44 µM)
MIC [7]: 1.56 µg/mL (≈ 5.49 µM)
MIC [8]: 12.5 µg/mL (≈ 44 µM)
MIC [9]: 3.13 µg/mL (≈ 11 µM)
MIC [10]: 3.13 µg/mL (≈ 11 µM)
MIC [11]: 1.56 µg/mL (≈ 5.49 µM)
MIC [12]: 3.13 µg/mL (≈ 11 µM)
MIC [13]: 12.5 µg/mL (≈ 44 µM)
MIC [14]: 6.25 µg/mL (≈ 22 µM)
MIC [15]: > 200 µg/mL
MIC [16]: > 200 µg/mL
MIC [17]: > 200 µg/mL
MIC [18]: 1.56 µg/mL (≈ 5.49 µM)
MIC [19]: 6.25 µg/mL (≈ 22 µM)
MIC [20]: 1.56 µg/mL (≈ 5.49 µM)
MIC [21]: 0.78 µg/mL (≈ 2.74 µM)
MIC [22]: 3.13 µg/mL (≈ 11 µM)
MIC [23]: > 200 µg/mL
MIC [24]: 100 µg/mL (≈ 352 µM)
MIC [25]: 0.1 µg/mL (≈ 0.352 µM)
MIC [26]: 3.13 µg/mL (≈ 11 µM)
MIC [27]: 25 µg/mL (≈ 87.9 µM)
MIC [28]: < 0.2 µg/mL
MIC [29]: 50 µg/mL (≈ 176 µM)
MIC [30]: 50 µg/mL (≈ 176 µM)

[C-]#[N+]C12CC3(/C=C/C(=O)OCC(C)C)OC3C1O2 (stereo not drawn) [compound 18]
MIC [1]: 0.39 µg/mL (≈ 1.56 µM)
MIC [2]: 12.5 µg/mL (≈ 50.1 µM)
MIC [3]: 3.13 µg/mL (≈ 12.6 µM)
MIC [4]: 0.78 µg/mL (≈ 3.13 µM)
MIC [5]: 12.5 µg/mL (≈ 50.1 µM)
MIC [6]: 12.5 µg/mL (≈ 50.1 µM)
MIC [7]: 1.56 µg/mL (≈ 6.26 µM)
MIC [8]: 12.5 µg/mL (≈ 50.1 µM)
MIC [9]: 3.13 µg/mL (≈ 12.6 µM)
MIC [10]: 1.56 µg/mL (≈ 6.26 µM)
MIC [11]: 0.78 µg/mL (≈ 3.13 µM)
MIC [12]: 6.25 µg/mL (≈ 25.1 µM)
MIC [13]: 200 µg/mL (≈ 802 µM)
MIC [14]: 0.78 µg/mL (≈ 3.13 µM)
MIC [15]: > 200 µg/mL
MIC [16]: 200 µg/mL (≈ 802 µM)
MIC [17]: > 200 µg/mL
MIC [18]: 3.13 µg/mL (≈ 12.6 µM)
MIC [19]: 6.25 µg/mL (≈ 25.1 µM)
MIC [20]: 0.2 µg/mL (≈ 0.802 µM)
MIC [21]: 0.1 µg/mL (≈ 0.401 µM)
MIC [22]: 100 µg/mL (≈ 401 µM)
MIC [23]: > 200 µg/mL
MIC [24]: 200 µg/mL (≈ 802 µM)
MIC [25]: 1.56 µg/mL (≈ 6.26 µM)
MIC [26]: 1.56 µg/mL (≈ 6.26 µM)
MIC [27]: 12.5 µg/mL (≈ 50.1 µM)
MIC [28]: < 0.2 µg/mL
MIC [29]: 0.2 µg/mL (≈ 0.802 µM)
MIC [30]: 0.78 µg/mL (≈ 3.13 µM)
